Assay results as given in US20230096766A1, “AMINO ACID HAVING FUNCTIONAL GROUP CAPABLE OF INTERMOLECULAR HYDROGEN BONDING, PEPTIDE COMPOUND CONTAINING SAME AND METHOD FOR PRODUCTION THEREOF” (Chugai Seiyaku Kabushiki Kaisha, priority 2018, published 2023).
*1 amine or outer side, *2 acyl side, *3 side chain or, on linkers, in order; H or OH if unused. Where a SMILES comes first, the peptide text is derived from it. Bridges are numbered along the chain shown (N, C = ends). [ ]: non-standard residue; d: D form. The star is where a group is joined. ξ: configuration not given here. Phe(3-OMe,4-CONHMs) = COc1cc(C[C@H](N)C(=O)O)ccc1C(=O)NS(C)(=O)=O; NMeHph(3-OMe-4-CONHMe) = CNC(=O)c1ccc(CC[C@H](NC)C(=O)O)cc1OC; hPhe(3-OMe,4-CONHMe) = CNC(=O)c1ccc(CC[C@H](N)C(=O)O)cc1OC; Phe(4-CF3) = N[C@@H](Cc1ccc(C(F)(F)F)cc1)C(=O)O; Phe(4-COOH) = N[C@@H](Cc1ccc(C(=O)O)cc1)C(=O)O; NMePhe(3-Cl) = CN[C@@H](Cc1cccc(Cl)c1)C(=O)O; NMeF = CN[C@@H](Cc1ccccc1)C(=O)O; NMeGABA = CN(CCCC(=O)[*:2])[*:1]; NMeI = CC[C@H](C)[C@H](NC)C(=O)O; NMeL = CN[C@@H](CC(C)C)C(=O)O; Butyl(3R-OH) = C[C@@H](O)CC*; NMeV = CN[C@H](C(=O)O)C(C)C; NMeAbu = CC[C@H](NC)C(=O)O; NMeA = CN[C@@H](C)C(=O)O; Piperidide = C1CCN(*)CC1; NBuGly = CCCCNCC(=O)O; Propyl(3-OH) = OCCC*; ξV = CC(C)C(N)C(=O)O; N(OH)Me = CN(O)*; Sar = CNCC(=O)O; tBu = CC(C)(C)*

experiment: in vitro; conditions: human, Caco-2, Caco-2 (cm/sec)

SMILES	Papp [×10⁻⁶ cm/s]
CCCCN1CC(=O)N(C)[C@@H](CC(C)C)C(=O)N[C@@H](COC(C)(C)C)C(=O)N(C)[C@@H]([C@@H](C)CC)C(=O)N(C)[C@@H](CC(C)C)C(=O)N[C@H](C(=O)N2CCCCC2)CC(=O)N[C@H](C)C(=O)N(C)[C@@H](Cc2ccccc2)C(=O)N[C@@H](Cc2ccc(C(=O)NS(C)(=O)=O)c(OC)c2)C(=O)N(C)[C@@H](CC(C)C)C(=O)N[C@@H]([C@@H](C)O)C1=O [AP137] ([dA][NMeF][Phe(3-OMe,4-CONHMs)][NMeL]T[NBuGly][NMeL]S(tBu)[NMeI][NMeL]D-Piperidide; lactam N-11)	< 0.29
CC[C@H](C)[C@@H]1NC(=O)[C@H](CC(C)C)N(C)C(=O)CCCN(C)C(=O)C[C@@H](C(=O)N2CCCCC2)NC(=O)[C@H](CC(C)C)N(C)C(=O)[C@H](CC(C)C)N(C)C(=O)[C@H]([C@@H](C)O)NC(=O)[C@H](CC(C)C)N(C)C(=O)[C@H](CCc2ccc(C(=O)NC)c(OC)c2)NC(=O)[C@H](CC(C)C)N(C)C(=O)[C@H](Cc2ccccc2)N(C)C1=O [AP202] ([NMeGABA][NMeL]I[NMeF][NMeL][hPhe(3-OMe,4-CONHMe)][NMeL]T[NMeL][NMeL]D-Piperidide; lactam N-11)	0.18
CCCCN1CC(=O)N(C)[C@@H](Cc2ccccc2)C(=O)N(C)[C@@H](CC(C)C)C(=O)N[C@@H](CC(C)C)C(=O)N(C)[C@@H](CC(C)C)C(=O)N[C@H](C(=O)N2CCCCC2)CC(=O)N(C)CC(=O)N(C)[C@@H](CC(C)C)C(=O)N[C@@H](CCc2ccc(C(=O)NC)c(OC)c2)C(=O)N(C)[C@@H](CC)C(=O)N[C@@H]([C@@H](C)O)C1=O [AP206] ([Sar][NMeL][hPhe(3-OMe,4-CONHMe)][NMeAbu]T[NBuGly][NMeF][NMeL]L[NMeL]D-Piperidide; lactam N-11)	0.86
CC[C@H](C)[C@@H]1NC(=O)[C@H](CC(C)C)N(C)C(=O)[C@@H](C)NC(=O)C[C@@H](C(=O)N2CCCCC2)NC(=O)[C@H](C(C)C)N(C)C(=O)[C@H](Cc2ccccc2)N(C)C(=O)[C@H](COC(C)(C)C)NC(=O)[C@H](CC(C)C)N(C)C(=O)CN(C)C(=O)[C@H](Cc2ccc(O)cc2)NC(=O)[C@H](C)N(C)C1=O [pd117] ([dA][NMeL]I[NMeA]Y[Sar][NMeL]S(tBu)[NMeF][NMeV]D-Piperidide; lactam N-11)	0.56
CC[C@H](C)[C@@H]1NC(=O)[C@H](CC(C)C)N(C)C(=O)CCCN(C)C(=O)C[C@@H](C(=O)N2CCCCC2)NC(=O)[C@H](CC(C)C)N(C)C(=O)[C@H](CC(C)C)N(C)C(=O)[C@H]([C@@H](C)O)NC(=O)[C@H](CC(C)C)N(C)C(=O)[C@H](COC(C)(C)C)NC(=O)[C@H](Cc2ccccc2)N(C)C(=O)[C@H](CCc2ccc(C(=O)NC)c(OC)c2)N(C)C1=O [AP227] ([NMeGABA][NMeL]I[NMeHph(3-OMe-4-CONHMe)][NMeF]S(tBu)[NMeL]T[NMeL][NMeL]D-Piperidide; lactam N-11)	0.48
CC(C)C[C@@H]1NC(=O)[C@H](Cc2cccc(Cl)c2)N(C)C(=O)[C@H](Cc2ccccc2)N(C)C(=O)[C@H](COCCCO)NC(=O)[C@H](CC(C)C)N(C)C(=O)CCCN(C)C(=O)C[C@@H](C(=O)N2CCCCC2)NC(=O)[C@H](CC(C)C)N(C)C(=O)[C@H](CC(C)C)N(C)C(=O)[C@H]([C@@H](C)O)NC(=O)[C@H](CC(C)C)N(C)C1=O [AP91] ([NMeGABA][NMeL]S(Propyl(3-OH))[NMeF][NMePhe(3-Cl)]L[NMeL]T[NMeL][NMeL]D-Piperidide; lactam N-11)	0.14
CCCCN1CC(=O)N(C)[C@@H](CC(C)C)C(=O)N(C)[C@@H](CC(C)C)C(=O)N[C@@H](COC(C)(C)C)C(=O)N(C)[C@@H](CC(C)C)C(=O)N[C@H](C(=O)N2CCCCC2)CC(=O)N(C)CC(=O)N(C)[C@@H](Cc2cccc(Cl)c2)C(=O)N[C@@H](Cc2ccc(C(=O)N(C)O)cc2)C(=O)N(C)[C@@H](CC(C)C)C(=O)N[C@@H]([C@@H](C)O)C1=O [AP254] ([Sar][NMePhe(3-Cl)][Phe(4-COOH)](N(OH)Me)[NMeL]T[NBuGly][NMeL][NMeL]S(tBu)[NMeL]D-Piperidide; lactam N-11)	0.15
CC(C)C[C@H]1C(=O)NC(C(C)C)C(=O)N(C)[C@@H](Cc2ccccc2)C(=O)N(C)[C@@H](Cc2cccc(Cl)c2)C(=O)N[C@@H](COCC[C@@H](C)O)C(=O)N(C)[C@@H](CC(C)C)C(=O)N[C@@H]([C@@H](C)O)C(=O)N(C)[C@@H](CC(C)C)C(=O)N(C)[C@@H](CC(C)C)C(=O)N[C@H](C(=O)N2CCCCC2)CC(=O)N(C)CCCC(=O)N1C (stereo partly drawn) [AP111] ([NMeGABA][NMeL][ξV][NMeF][NMePhe(3-Cl)]S(Butyl(3R-OH))[NMeL]T[NMeL][NMeL]D-Piperidide; lactam N-11)	0.13

same assay, conditions: human, Caco-2, Caco-2 (membrane permeability)

SMILES	Papp [×10⁻⁶ cm/s]
CCCCN1CC(=O)N(C)[C@@H](CC(C)C)C(=O)N[C@@H](CCC(=O)NC)C(=O)N(C)[C@@H](Cc2ccccc2)C(=O)N(C)[C@@H]([C@@H](C)CC)C(=O)N[C@H](C(=O)N2CCCCC2)CC(=O)N[C@H](CC(C)C)C(=O)N(C)[C@@H](CC(C)C)C(=O)N[C@@H](Cc2ccc(C(F)(F)F)cc2)C(=O)N(C)[C@@H](CC(C)C)C(=O)N[C@@H]([C@@H](C)O)C1=O [Compound J02] ([dL][NMeL][Phe(4-CF3)][NMeL]T[NBuGly][NMeL]E(NHMe)[NMeF][NMeI]D-Piperidide; lactam N-11)	0.004
